Consider ten compounds from ChEMBL document CHEMBL1153970, “Characteristic of neuraminidase inhibitory xanthones from Cudrania tricuspidata” (Bioorg Med Chem, 2009).

By IC50 is commonly meant the midpoint of a concentration-inhibition curve. A higher IC50 goes with weaker potency in that assay. The inhibition is the share of the control response that was lost under treatment.

Several values for one entry are separate records, joined by “and”; a condition that tells them apart may be missing. Equal values may be shown once.

The target in experiment [1] is T1, Sialidase (Clostridium perfringens, UniProt P10481).
T1 sequence (P10481 whole entry): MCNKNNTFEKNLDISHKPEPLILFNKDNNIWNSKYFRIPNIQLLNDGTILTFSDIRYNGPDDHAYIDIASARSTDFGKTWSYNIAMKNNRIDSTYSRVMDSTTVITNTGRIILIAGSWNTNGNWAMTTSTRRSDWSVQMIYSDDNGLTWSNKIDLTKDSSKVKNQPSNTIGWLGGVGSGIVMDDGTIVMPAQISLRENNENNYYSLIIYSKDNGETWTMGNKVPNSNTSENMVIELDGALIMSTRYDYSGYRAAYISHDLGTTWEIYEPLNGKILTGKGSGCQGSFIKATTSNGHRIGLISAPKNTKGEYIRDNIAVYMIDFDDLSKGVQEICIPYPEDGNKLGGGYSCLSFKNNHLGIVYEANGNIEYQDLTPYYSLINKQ
The experiment is described as follows: (§1) Inhibition of Clostridium perfringens neuraminidase by fluorimetry.

The target of experiment [2] is T2, Sialidase (Clostridium perfringens) (UniProt P10481).
T2 sequence (whole entry): T1 sequence (P10481 whole entry)
Described as §1.

For experiment [3], the target named is T1, Sialidase. Put plainly: Competitive inhibition of Clostridium perfringens neuraminidase by Lineweaver-Burke plot and Dixon plot.
Experiment [4] has as its target T1, Sialidase. Put plainly: Apparent binding affinity at Clostridium perfringens neuraminidase by fluorimetry. The settings on record: read-out: Ki(app).
Experiment [5] has as its target T2, Sialidase (Clostridium perfringens). The experiment is described as follows: Inhibition of Clostridium perfringens neuraminidase at 200 uM by fluorimetry.

At Sialidase [1], `C=CC(C)(C)c1c(O)cc2oc3cc(O)c(O)c(CC=C(C)C)c3c(=O)c2c1O` displayed an IC50 of 80 nM. In experiment [2], the Activity result was “Dose-dependent effect”. In addition, the Ki at Sialidase [3] is 58 nM; at Sialidase [4], 127 nM.

`C=CC(C)(C)c1c2c(c(O)c3c(=O)c4ccc(O)c(O)c4oc13)C=CC(C)(C)O2` [MACLURAXANTHONE] showed an IC50 against Sialidase [1] of 186 nM. Besides, the Activity result in experiment [2] was “Dose-dependent effect”. The Ki at Sialidase [3] came out at 103 nM; on Sialidase [4], 477 nM.

Regarding `O=c1c(O)c(-c2ccc(O)c(O)c2)oc2cc(O)cc(O)c12` [QUERCETIN], the IC50 against Sialidase [1] was 2700 nM.

As to `C=CC(C)(C)c1c(O)cc(O)c2c(=O)c3c(CC=C(C)C)c(O)c(O)cc3oc12` [CUDRATRICUSXANTHONE A], the midpoint of inhibition against Sialidase [1], the IC50, lay at 245 nM. In addition, the Activity entry in experiment [2] was “Dose-dependent effect”. Moreover, the Ki on Sialidase [3] worked out at 136 nM; at Sialidase [4], 214 nM.

As for `O=c1c2cc(O)c(O)cc2oc2cc(O)c([C@@H]3O[C@H](CO)[C@@H](O)[C@H](O)[C@H]3O)c(O)c12` [MANGIFERIN], the IC50 on Sialidase [1] worked out at 16200 nM.

For `C=CC(C)(C)c1c(OC)cc(O)c2c(=O)c3c(CC=C(C)C)c(O)c(O)cc3oc12` [CUDRAXANTHONE D], the IC50 against Sialidase [1] was 278 nM and 1270 nM. Also, the Activity result in experiment [2] was “Dose-dependent effect”. For the same compound, the Ki at Sialidase [3] was 143 nM and 950 nM; on Sialidase [4], 436 nM and 2230 nM.

`CC(C)=CCc1c(O)c(O)cc2c(=O)c3c(O)c4c(cc3oc12)OC(C)C4(C)C` (centres undefined) [CUDRAXANTHONE M] had an IC50 on Sialidase [1] of 186 nM. Further, in experiment [2], the Activity entry is “Dose-dependent effect”. The values for the Ki at Sialidase [3] and at Sialidase [4] were 98 nM and 510 nM, respectively.

The compound `C=CC(C)(C)c1c(O)cc2oc3c(CC=C(C)C)c(O)c(O)cc3c(=O)c2c1O` [CUDRAXANTHONE L] gave an IC50 against Sialidase [1] of 228 nM. Besides, the Activity result in experiment [2] is “Dose-dependent effect”. The values for the Ki at Sialidase [3] and at Sialidase [4] were 138 nM and 568 nM, respectively.

On Sialidase [1], `O=c1cc(-c2ccc(O)cc2)oc2cc(O)cc(O)c12` [APIGENIN] returned an IC50 of 17400 nM.

As to `C=CC(C)(C)c1c(O)cc(O)c2c(=O)c3cc(O)c4c(c3oc12)C=CC(C)(C)O4`, in experiment [5], the Activity entry is “Dose-dependent effect” and the inhibition came out at 30%.
